How the values were obtained:
RHAMM:caveolin = experiment: Co-immunoprecipitation of RHAMM and caveolin-1 from SMC lysates; assay type: cell-based, rat; conditions: peptide 24 hours prior to and during 6 hour PDGF-BB treatment
Procedure: For standard experiment, 100 μg of lysate was used. Samples were pre-cleared with 50 μl of Protein G-agarose for 60 minutes at room temperature while rotating then centrifuged at 13000 g for 5 minutes. The supernatant was transferred to a new tube and incubated with 1 μg of antibody overnight at 4° C. while rotating. The samples were then incubated with 20 μl of Protein G-agarose for 1 hour at 4° C. while rotating. Beads were collected by centrifugation (1 minute at high speed) and then washed three times with lysis buffer (50 mM Tris, pH 8.0/140 mM NaCl/[…]/0.4% Deoxycholate/protease inhibitor cocktail (Boehringer Manheim). The beads were resuspended in at least 40 μl of 2× Novex Sample Buffer and western blot was performed as per NUPAGE protocol (Invitrogen). Primary and secondary antibodies were diluted (R36: 5 μg/ml, Caveolin-1: 0.25 μg/ml) and pre-incubated together over-night before use. For biotin labeling experiments, 6 μl of streptavidin-agarose was added to 25 μg of protein and incubated for 3 hours at 4° C. Beads were collected by centrifugation at 13000 g for 1 minute, washed and resuspended in Novex sample buffer as above.
Therefore, peptides were used to interfere with RHAMM:caveolin to establish direct protein-protein interactions. […]

erk = experiment: Immunoblot for total and phosphorylated-erk in PDGF-BB stimulated SMC; assay type: cell-based, rat; conditions: peptide pretreatment 24 hours, then 10-minute PDGF-BB
70 kDa RHAMM [1] = experiment: GPI-anchor identification: Triton X-114 phase separation, PI-PLC, surface biotin labeling; assay type: cell-based, rat; conditions: co-treatment with PDGF-BB and mannosamine 10 mM for six hours
Procedure: Differential solubilization and temperature-induced Triton X-114 phase separation was performed as briefly described with 75-100 μg of membrane protein. Cells were grown to confluency and quiesced for 48 hours at which point cells were harvested for membrane protein. Some samples were incubated with PI-PLC for 1 hour at 37° C. before proceeding with Triton X-114 phase separation. PI-PLC was used at 0.375 U/100 μg membrane protein. In separate experiments Mannosamine-HCl was used at 10 mM during 6 hour PDGF-BB treatment. For radiolabel experiments, cells were grown to confluency and quiesced for 48 hours in inositol-free media and then incubated with 4 μCi/mL of ^3H myo-inositol during 6 hour PDGF-BB treatment. For surface biotinylation experiments, media was removed after treatment and replaced with 1 mg/ml biotin in defined media and incubated for 20 minutes at 37° C.

70 kDa RHAMM [2] = experiment: MBCD-mediated release of RHAMM from SMC (caveolar disruption); assay type: cell-based, rat; conditions: MBCD 30 minutes, absence of PDGF-BB
Procedure: Caveolar disruption was performed as described below. Cells were grown to confluency in 150 mm dishes and quiesced for 48 hr. After 6 hr PDGF treatment, media was removed and replaced with 20 mm methyl-beta-cyclodextrin in TKM buffer (50 mM Tris-HCl, pH7.4, 25 mM KCl, 5 mM MgCl, 1 mM EDTA). Cells were incubated for 20-30 minutes at 37° C., and the cell-free supernatant was collected after centrifugation at 2000 g for 10 minutes.
Since the GPI anchor links to a hydrophobic lipid tail that inserts into the exoplasmic leaflet of the cell membrane, a liquid ordered arrangement is necessary to maintain its integrity. […] Methyl-beta-cyclodextrin (MBCD), a cell surface-specific cholesterol-extracting agent, can be used to disrupt lipid rafts and caveolae to release endogenous GPI-anchored proteins (Ilangumaran, Madore, McCabe). […] Proteins in the cholesterol-rich annulus are sensitive whereas those in the sphingolipid core are resistant to release by MBCD. SMC cultures were treated with MBCD for 30 minutes, and the cell free supernatant was collected. The supernatant was run by volume on SDS-PAGE and immunoblotted for RHAMM and urokinase-plasmingen activator receptor (uPAR), a defined GPI-anchored protein previously shown to be present in lipid domains. Without MBCD, RHAMM was not released into the supernatant in detectable amounts, irrespective of PDGF-BB treatment (FIG. 11a, lane 2 vs 4). […]

SMC = conditions: 0.0 μg/ml of HA; previously demonstrated; cited from earlier work
rat aortic SMC [3] = experiment: SMC proliferation (MTS assay); assay type: cell-based
Procedure: In order to determine the effect of PDGF-BB on SMC proliferation, 80% confluent and quiescent cultures of SMC were stimulated for 72 hours with varying doses of PDGF-BB (2-50 ng/ml) and cell number was determined using the MTS assay as described in Methods. A bell-shaped dose response curve was obtained with maximum stimulation of SMC proliferation at 10-25 ng/ml (FIG. 7d, *p<0.01 vs. control).
The effect of HA on SMC proliferation and modulation by PDGF-BB was also examined. SMC that were either maintained in serum-free medium or pre-stimulated with 10 ng/ml PDGF-BB for 24 hours were exposed to HA in serum-free medium at concentrations of 0.1-1000 μg/ml for 48 hours. […] As expected, baseline proliferation was increased in SMC cultures following exposure to 10 ng/ml PDGF-BB for 24 hours (FIG. 7e, *p<0.01 vs. non-stimulated cells). […] In order to determine the contribution of RHAMM to SMC proliferation induced by HA, SMC cultures were treated with R36 throughout the pre-stimulation period with PDGF-BB and subsequently during HA stimulation. Non-immune IgG was used as a negative control and a blocking anti-PDGF-BB antibody was used as a positive inhibitory control. Cell number was determined by MTS assay 48 hours after HA stimulation with and without antibody treatments. As noted before, PDGF-BB pretreatment increased baseline proliferation, FIG. 7e*p<0.01 vs. no PDGF), and HA stimulated a further 25% increase in proliferation, FIG. 7e**p<0.05 vs. PDGF, no HA). […] Anti-PDGF-BB antibody blocked 50% of the PDGF-mediated increase in baseline proliferation, FIG. 7e#p<0.01 anti-PDGF vs. normal IgG).

rat aortic SMC [4] = experiment: SMC migration at leading edge of single scratch wounds (timelapse cinemicrography); assay type: cell-based
Procedure: Primary cultures of rat aortic SMC were established as previously described. […]
The medium of confluent SMC cultures was then changed to DMEM defined medium for 48 hours for quiescence. Migration of SMC at the leading edge of single scratch wounds of confluent cultures was determined using timelapse cinemicrography as previously described and summarized below. […] Media HA concentration was determined as described below. […]
SMC plated in DMEM complete medium were allowed to grow to confluence. After overnight quiescence, a single scratch wound was made in the center of the culture plate using a sterile cell scraper and fresh defined medium was added The motility of cells at the leading edge of these wounds was determined using timelapse cinemicrography (Metamorph, Universal Imaging Corporation, West Chester, Pa.) as previously described. Briefly, cells were monitored using a Nikon TE-300 inverted microscope (Nikon Instruments, Inc., Melville, N.Y.) to which a video camera (Hamamatsu CCD, Inc., Hamamatsu City, Japan) was attached. At least 20 cells per high power field were imaged every hour and the mean distance traveled per frame was measured to obtain mean cell velocities.

rat aortic SMC [5] = experiment: HA content of medium of SMC cultures (ELISA like assay); assay type: cell-based; conditions: quiescent SMC treated 24 hours, normalized to total protein
Procedure: The medium of confluent SMC cultures was then changed to DMEM defined medium for 48 hours for quiescence. Migration of SMC at the leading edge of single scratch wounds of confluent cultures was determined using timelapse cinemicrography as previously described and summarized below. To observe the effect of HA on this migratory response to wounding, cultures were stimulated with varying concentrations of HA (0.1-100 μg/ml) and studied for 24 hours. For PDGF-BB stimulated HA synthesis experiments, quiescent SMC were stimulated with varying doses of PDGF-BB (2-100 ng/ml) for 24 hours. Media HA concentration was determined as described below. All experiments described below included 10 replicates and each experiment was repeated at least 3 times.
A modified ELISA assay was utilized for determination of HA concentration.
In order to determine the optimal concentration of PDGF-BB required to simulate HA synthesis in SMC, the HA content of medium from quiescent SMC treated for 24 hours with various concentrations of PDGF-BB was determined using an ELISA like assay for HA. Resulting values were normalized to the total protein content of the cultures. […] We therefore used this concentration of PDGF-BB for all subsequent experiments.

Q: What does the source list for “CAV: caveolin scaffolding domain (aa 82-101) peptide fused to antenapedia sequence (RQIKIWFQNRRMKWKKDGIWKASFTTFTVTKYWFYR)”?
A: co-immunoprecipitation of RHAMM and caveolin-1 (RHAMM:caveolin): decreased co-immunoprecipitation; PDGF-BB-induced erk phosphorylation after peptide pretreatment (erk): inhibited

Q: For `N[C@@H]1C(O)O[C@H](CO)[C@@H](O)[C@@H]1O` (stereo partly drawn) [mannosamine], which “presence of RHAMM in pellet phase after Triton X-114 fractionation” value (70 kDa RHAMM [1]) is on record?
A: completely inhibited

Q: With “RM: peptide of RHAMM caveolin-binding motif (KWRLL YEEL YDKTKPFQ) fused to antenapedia sequence RQIKIWFQNRRMKWKK (YDKTKPFQRQIKIWFQNRRMKWKK)” as the molecule, how does the “co-immunoprecipitation of RHAMM and caveolin-1” value (RHAMM:caveolin) read?
A: decreased co-immunoprecipitation

Q: And the “PDGF-BB-induced erk phosphorylation after peptide pretreatment” value (erk)?
A: inhibited

Q: With Methyl-beta-cyclodextrin [MBCD] as the molecule, how does the “release of 70 kDa RHAMM into supernatant by MBCD” value (70 kDa RHAMM [2]) read?
A: released into supernatant

Q: What does the source list for hyaluronan [HA]?
A: random migration of sub-confluent SMC cultures (SMC): increases their random migration; proliferative response of SMC to HA without PDGF-BB pre-stimulation (rat aortic SMC [3]; HA 0.1-1000 μg/ml, 48 hours, serum-free medium): no proliferative response; HA concentration of maximal proliferative response (rat aortic SMC [3]; after pre-stimulation with 10 ng/ml PDGF-BB): 100 µg/mL; further increase in SMC proliferation in response to HA (rat aortic SMC [3]; after pre-stimulation with 10 ng/ml PDGF-BB for 24 hours, HA 48 hours): 25%; effect of exogenous HA on SMC migration after single scratch wounding (rat aortic SMC [4]; 0.001 μg/ml HA added to wounded cultures): further stimulation of SMC that continued up to 18 hours

B1: PDGF-BB: Platelet-Derived Growth Factor BB dimer, obtained from R & D Systems (protein, UniProt P01127 82-190, looked up)
Platelet-derived growth …: SLGSLTIAEPAMIAECKTRTEVFEISRRLIDRTNANFLVWPPCVEVQRCSGCCNNRNVQCRPTQVQLRPVQVRKIEIVRKKPIFKKATVTLEDHLACKCETVAAARPVT
modifications: homodimer BB
notes: Platelet-Derived Growth Factor BB dimer, obtained from R & D Systems
Q: With B1 as the molecule, how does the “baseline SMC proliferation” value (rat aortic SMC [3]; 10 ng/ml PDGF-BB for 24 hours) read?
A: increased

Q: What about the “PDGF-BB dose of maximum stimulation of SMC proliferation” value (rat aortic SMC [3]; 72 hours, doses 2-50 ng/ml, bell-shaped curve) of the same molecule?
A: 10 to 25 ng/mL

Q: And the “PDGF-BB dose of maximal HA synthesis” value (rat aortic SMC [5])?
A: 10 ng/mL

Q: What about the “increase of mean cell velocity of SMC at leading edge of wounds” value (rat aortic SMC [4]; PDGF-BB 10 ng/ml vs non-stimulated control) of the same molecule?
A: two-fold

— patent US20070179085A1, “MODULATION OF RHAMM-CAVEOLIN/LIPID RAFT INTERACTIONS TO AFFECT DEVELOPMENT, RESPONSES TO TISSUE INJURY, ANGIOGENESIS, TUMORIGENESIS, METASTASIS AND GROWTH FACTOR/CYTOKINE RESPONSES” (priority 2005, published 2007)
